Usually IC50 stands for the concentration that inhibits the measured activity by half. The low end stands for greater potency, the high end for weaker potency.

Activity calls are given as the source filed them. The rule behind the calls is not given here.

Assay [1] deals with T1, RAC-alpha serine/threonine-protein kinase (Homo sapiens, UniProt P31749). The assay can be described thus: Inhibition of Akt1 phosphorylation by HTRF assay.
Assay [2] concerns the target T2, RAC-beta serine/threonine-protein kinase (Homo sapiens, UniProt P31751). Kind of assay: Inhibition of Akt2 phosphorylation in human by C33a cells by IPKA assay. It is filed as cell-based.
Assay [3] concerns the target T2, RAC-beta serine/threonine-protein kinase. Kind of assay: Inhibition of Akt2 phosphorylation by HTRF assay. In general terms: Time-resolved FRET reads energy transfer from a long-lived donor to a nearby acceptor.
In assay [4] the target is T1, RAC-alpha serine/threonine-protein kinase. The assay can be described thus: Inhibition of Akt1 phosphorylation in human by C33a cells by IPKA assay. It is filed as cell-based.

T2 sequence (P31751 whole entry): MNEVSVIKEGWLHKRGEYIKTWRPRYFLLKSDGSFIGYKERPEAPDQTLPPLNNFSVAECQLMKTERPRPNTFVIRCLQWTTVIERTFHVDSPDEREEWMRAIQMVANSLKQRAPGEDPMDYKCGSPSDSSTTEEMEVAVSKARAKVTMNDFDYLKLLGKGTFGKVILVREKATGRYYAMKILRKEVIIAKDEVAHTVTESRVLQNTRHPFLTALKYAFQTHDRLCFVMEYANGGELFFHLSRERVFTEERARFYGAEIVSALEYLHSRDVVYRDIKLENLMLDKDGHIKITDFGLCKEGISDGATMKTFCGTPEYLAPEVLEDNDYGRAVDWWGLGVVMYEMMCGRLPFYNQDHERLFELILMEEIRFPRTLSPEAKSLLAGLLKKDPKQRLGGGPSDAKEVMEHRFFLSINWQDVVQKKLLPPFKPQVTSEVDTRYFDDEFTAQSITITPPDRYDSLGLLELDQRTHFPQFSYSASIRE
T1 sequence (P31749 whole entry): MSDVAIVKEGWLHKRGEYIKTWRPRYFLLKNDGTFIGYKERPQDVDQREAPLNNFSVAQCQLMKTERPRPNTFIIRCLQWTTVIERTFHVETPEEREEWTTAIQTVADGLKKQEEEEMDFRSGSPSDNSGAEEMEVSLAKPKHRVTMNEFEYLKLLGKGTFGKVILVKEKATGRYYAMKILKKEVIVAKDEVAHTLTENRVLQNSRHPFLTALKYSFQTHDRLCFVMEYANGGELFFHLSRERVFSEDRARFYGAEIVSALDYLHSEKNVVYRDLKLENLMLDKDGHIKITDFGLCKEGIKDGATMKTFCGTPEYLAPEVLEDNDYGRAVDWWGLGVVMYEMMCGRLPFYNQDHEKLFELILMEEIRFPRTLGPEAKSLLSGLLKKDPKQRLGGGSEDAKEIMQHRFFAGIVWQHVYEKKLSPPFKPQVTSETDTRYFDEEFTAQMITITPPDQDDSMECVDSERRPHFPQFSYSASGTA

Regarding `OC1CCN(c2ncc3cc(-c4ccccc4)c(-c4ccc(CN5CCC(c6nnc(-c7ccccn7)[nH]6)CC5)cc4)nc3n2)CC1`, the IC50 in assay [1] is 7 nM; in assay [2], 168 nM; in assay [3], 45 nM; in assay [4] it was 17 nM.
With `CN1CCN(c2ncc3cc(-c4ccccc4)c(-c4ccc(CN5CCC(c6nnc(-c7ccccn7)[nH]6)CC5)cc4)nc3n2)CC1`, the IC50 is 9 nM in assay [1], 52 nM in assay [2], 27 nM in assay [3] and 36 nM in assay [4].
As to `CN(C)CCNc1ncc2cc(-c3ccccc3)c(-c3ccc(CN4CCC(c5nnc(-c6ccccn6)[nH]5)CC4)cc3)nc2n1`, the IC50 in assay [1] was 79 nM; in assay [2], 223 nM; in assay [3] it was 154 nM; in assay [4], 208 nM.
For `C[C@@H]1CN[C@@H](C)CN1c1ncc2cc(-c3ccccc3)c(-c3ccc(CN4CCC(c5nnc(-c6ccccn6)[nH]5)CC4)cc3)nc2n1`, the IC50 stood at 43 nM in assay [1], 199 nM in assay [2], 29 nM in assay [3] and 194 nM in assay [4].
As to `CSc1ncc2cc(-c3ccccc3)c(-c3ccc(CNCCC(=O)c4ccccc4N)cc3)nc2n1`, the IC50 in assay [2] was 388 nM; in assay [4], 78 nM.
Turning to `c1ccc(-c2cc3cnc(N4CCCCC4)nc3nc2-c2ccc(CN3CCC(c4nnc(-c5ccccn5)[nH]4)CC3)cc2)cc1`, the IC50 in assay [1] was determined as 18 nM; in assay [2] it was 229 nM; in assay [3] it was 93 nM; in assay [4], 36 nM.
In the case of `O=S1(=O)CCN(c2ncc3cc(-c4ccccc4)c(-c4ccc(CN5CCC(c6nnc(-c7ccccn7)[nH]6)CC5)cc4)nc3n2)CC1`, the half-maximal inhibitory concentration (IC50) in assay [1] was determined as 38 nM; in assay [3] it was 297 nM. In addition, the result in assay [4] was inactive.
Take `c1ccc(-c2cc3cnc(-n4ccnc4)nc3nc2-c2ccc(CN3CCC(c4nnc(-c5ccccn5)[nH]4)CC3)cc2)cc1`: the IC50 in assay [1] was 5 nM; in assay [2], 684 nM; in assay [3] it was 73 nM; in assay [4] it was 35 nM.
Regarding `C[C@@H]1CN(c2ncc3cc(-c4ccccc4)c(-c4ccc(CN5CCC(c6nnc(-c7ccccn7)[nH]6)CC5)cc4)nc3n2)C[C@H](C)O1`, the IC50 turned out to be 28 nM in assay [1], 184 nM in assay [2], 102 nM in assay [3] and 42 nM in assay [4].
Regarding `FC1(F)CCN(c2ncc3cc(-c4ccccc4)c(-c4ccc(CN5CCC(c6nnc(-c7ccccn7)[nH]6)CC5)cc4)nc3n2)C1`, the IC50 was 20 nM in assay [1], 462 nM in assay [2], 252 nM in assay [3] and 75 nM in assay [4].
In the case of `c1ccc(-c2cc3cnc(N4CCOCC4)nc3nc2-c2ccc(CN3CCC(c4nnc(-c5ccccn5)[nH]4)CC3)cc2)cc1`, the IC50 in assay [1] came to 5 nM; in assay [2], 243 nM; in assay [3], 43 nM; in assay [4] it was 19 nM.
With `CN1CC(N2CCN(c3ncc4cc(-c5ccccc5)c(-c5ccc(CN6CCC(c7nnc(-c8ccccn8)[nH]7)CC6)cc5)nc4n3)CC2)C1`, the IC50 in assay [1] came out at 12 nM; in assay [2] it was 27 nM; in assay [3], 9 nM; in assay [4] it was 6 nM.
For the compound `CN(C)C(=O)N1CCN(c2ncc3cc(-c4ccccc4)c(-c4ccc(CN5CCC(c6nnc(-c7ccccn7)[nH]6)CC5)cc4)nc3n2)CC1`, the concentration for half-maximal inhibition (IC50) in assay [1] is 18 nM; in assay [2], 177 nM; in assay [3] it was 40 nM; in assay [4], 13 nM.
For `CN1CCN(c2cc3cc(-c4ccccc4)c(-c4ccc(CN5CCC(c6nnc(-c7ccccn7)[nH]6)CC5)cc4)nc3cn2)CC1`, the IC50 in assay [1] was 740 nM; in assay [2], 133 nM; in assay [3], 59 nM; in assay [4], 924 nM.
Consider `CN(C)C1CCN(c2ncc3cc(-c4ccccc4)c(-c4ccc(CN5CCC(c6nnc(-c7ccccn7)[nH]6)CC5)cc4)nc3n2)CC1`, for which the IC50 was determined as 10 nM in assay [1], 70 nM in assay [2], 22 nM in assay [3] and 23 nM in assay [4].
Regarding `c1ccc(-c2cc3cnc(N4CCn5cnnc5C4)nc3nc2-c2ccc(CN3CCC(c4nnc(-c5ccccn5)[nH]4)CC3)cc2)cc1`, the IC50 came to 19 nM in assay [1], 735 nM in assay [2], 138 nM in assay [3] and 125 nM in assay [4].
Take `O[C@@H]1CN(c2ncc3cc(-c4ccccc4)c(-c4ccc(CN5CCC(c6nnc(-c7ccccn7)[nH]6)CC5)cc4)nc3n2)CCN1`: the IC50 was found to be 25 nM in assay [1], 421 nM in assay [2], 67 nM in assay [3] and 61 nM in assay [4].
For the compound `C[C@@H]1CN(c2ncc3cc(-c4ccccc4)c(-c4ccc(CN5CCC(c6nnc(-c7ccccn7)[nH]6)CC5)cc4)nc3n2)C[C@H](C)N1`, the concentration for half-maximal inhibition (IC50) in assay [1] was 45 nM; in assay [2], 101 nM; in assay [3], 77 nM; in assay [4] it was 46 nM.
For `CS(=O)(=O)N1CCN(c2ncc3cc(-c4ccccc4)c(-c4ccc(CN5CCC(c6nnc(-c7ccccn7)[nH]6)CC5)cc4)nc3n2)CC1`, the IC50 in assay [1] is 7 nM; in assay [2] it was 196 nM; in assay [3], 23 nM; in assay [4], 20 nM.
In the case of `CN1CCN(c2nccc3cc(-c4ccccc4)c(-c4ccc(CN5CCC(c6nnc(-c7ccccn7)[nH]6)CC5)cc4)nc23)CC1`, the IC50 is 720 nM in assay [1] and 3570 nM in assay [3]. The result in assay [2] and in assay [4] was inactive.
In the case of `CC(=O)N1CCN(c2ncc3cc(-c4ccccc4)c(-c4ccc(CN5CCC(c6nnc(-c7ccccn7)[nH]6)CC5)cc4)nc3n2)CC1`, the IC50 in assay [1] came to 5 nM; in assay [2] it was 145 nM; in assay [3] it was 16 nM; in assay [4], 15 nM.
Taken in the same sequence, the figures for `CN(C)CC(=O)N1CCN(c2ncc3cc(-c4ccccc4)c(-c4ccc(CN5CCC(c6nnc(-c7ccccn7)[nH]6)CC5)cc4)nc3n2)CC1` were 6 nM, 19 nM, 6 nM and 3 nM.
In the case of `C[C@@H]1CN(c2ncc3cc(-c4ccccc4)c(-c4ccc(CN5CCC(c6nnc(-c7ccccn7)[nH]6)CC5)cc4)nc3n2)CCN1`, the IC50 in assay [1] is 8 nM; in assay [2] it was 44 nM; in assay [3], 25 nM; in assay [4] it was 36 nM.
In the same order, the values of `C[C@H]1CN(c2ncc3cc(-c4ccccc4)c(-c4ccc(CN5CCC(c6nnc(-c7ccccn7)[nH]6)CC5)cc4)nc3n2)CCN1` are 17 nM, 125 nM, 47 nM and 75 nM.
Turning to `CN1CCN(c2nccc3nc(-c4ccc(CN5CCC(c6nnc(-c7ccccn7)[nH]6)CC5)cc4)c(-c4ccccc4)cc23)CC1`, the figures for the IC50 in assay [1] and in assay [3] were 285 nM and 539 nM, respectively. Moreover, the outcome in assay [2] and in assay [4] was inactive.
For the compound `OCCN1CCN(c2ncc3cc(-c4ccccc4)c(-c4ccc(CN5CCC(c6nnc(-c7ccccn7)[nH]6)CC5)cc4)nc3n2)CC1`, the IC50 was determined as 9 nM in assay [1], 41 nM in assay [2], 31 nM in assay [3] and 17 nM in assay [4].

Values taken from ChEMBL document CHEMBL1157492, “Discovery of potent and cell-active allosteric dual Akt 1 and 2 inhibitors” (Bioorg Med Chem Lett, 2008).
